Reference: PubChem BioAssay (NCI)
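1) Cells in 96-well plates. 2) Compound, 48 h, 5 concentrations. 3) Linear interpolation between surrounding doses. 4) Unreached endpoint = highest concentration. At the GI50, growth is halved. TGI: total growth inhibition.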

Assays:
Assay in all cases: NCI tumour cell line growth inhibition, 48 h
NCI-H23 lung = test system: NCI-H23 lung
NCI-H460 lung = test system: NCI-H460 lung
NCI-H522 lung = test system: NCI-H522 lung
NCI/ADR-RES ovarian = test system: NCI/ADR-RES ovarian
OVCAR-3 ovarian = test system: OVCAR-3 ovarian
OVCAR-4 ovarian = test system: OVCAR-4 ovarian
OVCAR-5 ovarian = test system: OVCAR-5 ovarian
OVCAR-8 ovarian = test system: OVCAR-8 ovarian
PC-3 prostate = test system: PC-3 prostate
RPMI-8226 leukemia = test system: RPMI-8226 leukemia
RXF 393 renal = test system: RXF 393 renal
SF-268 CNS = test system: SF-268 CNS
SF-295 CNS = test system: SF-295 CNS
SF-539 CNS = test system: SF-539 CNS
SK-MEL-2 melanoma = test system: SK-MEL-2 melanoma
SK-MEL-28 melanoma = test system: SK-MEL-28 melanoma
SK-MEL-5 melanoma = test system: SK-MEL-5 melanoma
SK-OV-3 ovarian = test system: SK-OV-3 ovarian
SN12C renal = test system: SN12C renal
SNB-19 CNS = test system: SNB-19 CNS
SNB-75 CNS = test system: SNB-75 CNS
SR leukemia = test system: SR leukemia
SW-620 colon = test system: SW-620 colon
T-47D breast = test system: T-47D breast
TK-10 renal = test system: TK-10 renal
U251 CNS = test system: U251 CNS
UACC-257 melanoma = test system: UACC-257 melanoma
UACC-62 melanoma = test system: UACC-62 melanoma
UO-31 renal = test system: UO-31 renal

## CN1CCN(Cc2ccc(NC(=O)c3cncc(C#Cc4cnc(N)c5ccccc45)c3)cc2C(F)(F)F)CC1
NCI-H23 lung
  GI50: 0.41 µM
  TGI: 0.963 µM
NCI-H460 lung
  GI50: 0.158 µM
  TGI: 0.581 µM
NCI-H522 lung
  GI50: 0.367 µM
  TGI: 0.967 µM
NCI/ADR-RES ovarian
  GI50: 0.556 µM
  TGI: 1.21 µM
OVCAR-3 ovarian
  GI50: 0.41 µM
  TGI: 0.967 µM
OVCAR-4 ovarian
  GI50: 0.117 µM
  TGI: 0.738 µM
OVCAR-5 ovarian
  GI50: 0.457 µM
  TGI: 1.11 µM
OVCAR-8 ovarian
  GI50: 0.473 µM
  TGI: 1.46 µM
PC-3 prostate
  GI50: 0.442 µM
  TGI: 1.36 µM
RPMI-8226 leukemia
  GI50: 0.441 µM
  TGI: 1.41 µM
RXF 393 renal
  GI50: 0.163 µM
  TGI: 0.563 µM
SF-268 CNS
  GI50: 0.321 µM
  TGI: 0.832 µM
SF-295 CNS
  GI50: 0.486 µM
  TGI: 0.955 µM
SF-539 CNS
  GI50: 0.38 µM
  TGI: 0.792 µM
SK-MEL-2 melanoma
  GI50: 0.196 µM
  TGI: 0.697 µM
SK-MEL-28 melanoma
  GI50: 0.513 µM
  TGI: 0.988 µM
SK-MEL-5 melanoma
  GI50: 0.537 µM
  TGI: 0.994 µM
SK-OV-3 ovarian
  GI50: 0.199 µM
  TGI: 0.638 µM
SN12C renal
  GI50: 0.242 µM
  TGI: 0.693 µM
SNB-19 CNS
  GI50: 0.563 µM
  TGI: 1.22 µM
SNB-75 CNS
  GI50: 0.443 µM
  TGI: 0.877 µM
SR leukemia
  GI50: 0.157 µM
  TGI: 6.63 µM
SW-620 colon
  GI50: 0.125 µM
  TGI: 0.421 µM
T-47D breast
  GI50: 1.01 µM
  TGI: 4.11 µM
TK-10 renal
  GI50: 0.466 µM
  TGI: 1 µM
U251 CNS
  GI50: 0.279 µM
  TGI: 0.763 µM
UACC-257 melanoma
  GI50: 0.605 µM
  TGI: 1.27 µM
UACC-62 melanoma
  GI50: 0.587 µM
  TGI: 1.16 µM
UO-31 renal
  GI50: 0.436 µM
  TGI: 0.869 µM
